This is an account of results in ChEMBL document CHEMBL1201862, “PubChem BioAssay data set” (2004).

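96-well plates; 48 h exposure; 5 concentrations. Endpoints by linear interpolation between flanking doses. Not reached: highest tested concentration assigned. Here, GI50 denotes the concentration required for 50% inhibition of growth.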 The source made the active and inactive calls. Rule as the data show it: active = GI50 up to about 1.1 µM and inactive = higher. Some results are limits rather than exact numbers.

Some test systems named below: DMS-114; SK-MEL-5; HL-60; XF498; DMS-273; K562; Hs-578T; MDA-MB-231; IGROV-1; DLD-1; Malme-3M; OVCAR-5; UACC-257; CAKI-1; A498; DU-145; SF-268; PC-3; SR; BT-549.
Holding throughout (test): NCI tumour cell line growth inhibition, 48 h

Take `C/C(=N\N=C(/S)N1CC2CCC(CC2)C1)c1cccc[n+]1[O-]`: the GI50 in the test with DMS-114 is 1.35 µM (inactive); in the test with SK-MEL-5 it was 6.21 µM (inactive); in the test with HL-60 it was 0.23 µM (active); in the test with XF498, 21.4 µM (inactive); with DMS-273 it was 2.62 µM (inactive); in the test with K562, 0.228 µM (active). The GI50 in the test on Hs-578T was 18.4 µM (inactive); in the test on MDA-MB-231, 19.5 µM (inactive); with IGROV-1 it was 17.9 µM (inactive); in the test on DLD-1, 2.06 µM (inactive); with Malme-3M, 12.5 µM (inactive); in the test on OVCAR-5, 6.11 µM (inactive). Further, the GI50 with UACC-257 is 7.59 µM (inactive); in the test on CAKI-1, 9.14 µM (inactive); in the test with A498 it was 18.3 µM (inactive); in the test on DU-145 it was 46.8 µM (inactive); in the test with SF-268, 11.8 µM (inactive); in the test on PC-3, 11.7 µM (inactive).
On to `O=C(/C=C/c1cccc([N+](=O)[O-])c1)c1cccnc1`, for which the GI50 in the test with DMS-114 is 22.6 µM (inactive); with SK-MEL-5, 14.7 µM (inactive); in the test with SR, 22.7 µM (inactive); in the test with HL-60 it was 20.6 µM (inactive); in the test with XF498, 35.8 µM (inactive); in the test on DMS-273, 25.3 µM (inactive). In addition, the GI50 in the test on K562 is 29.4 µM (inactive); in the test with IGROV-1, 28.7 µM (inactive); with DLD-1 it was 20.3 µM (inactive); with Malme-3M it was > 89.9 µM (inactive); in the test on OVCAR-5, > 100 µM (inactive); in the test on UACC-257 it was 23.9 µM (inactive). The results for the GI50 in the test with CAKI-1, in the test on A498 and with SF-268 were > 46.5 µM (inactive), > 43.6 µM (inactive) and 33.3 µM (inactive), respectively.
With `Cn1cnc([N+](=O)[O-])c1Sc1nc2cccnc2s1`, the GI50 with DMS-114 is 14.7 µM (inactive); with SK-MEL-5, 19.7 µM (inactive); in the test with SR it was 16 µM (inactive); with XF498, 21 µM (inactive); in the test on DMS-273, 16.7 µM (inactive); in the test on IGROV-1, 17.5 µM (inactive). In addition, the GI50 with DLD-1 is 12.8 µM (inactive); in the test with Malme-3M, 10.1 µM (inactive); in the test on OVCAR-5 it was 47.2 µM (inactive); in the test with UACC-257, 13.3 µM (inactive); with CAKI-1 it was 7.93 µM (inactive); in the test on A498 it was 40.9 µM (inactive). Further, in the test with SF-268, the GI50 was 28.8 µM (inactive).
For `C=Cc1cncc(C#N)c1CCc1c(C#N)cncc1C=C`, the GI50 with DMS-114, in the test on SK-MEL-5, in the test with SR, in the test on HL-60, in the test with XF498 and in the test on DMS-273 was > 10 µM (inactive) each time. In addition, the GI50 with K562, with IGROV-1, in the test with DLD-1, in the test on Malme-3M, with OVCAR-5 and in the test on UACC-257 was > 10 µM (inactive) each time. Moreover, the values for the GI50 with CAKI-1, in the test on A498 and in the test with SF-268 were 63.2 µM (inactive), > 10 µM (inactive) and > 10 µM (inactive), respectively.
On to `Nc1c(Cl)ncnc1NCCCCCCCCCCCCNc1ncnc(Cl)c1N`, for which the GI50 in the test with DMS-114 is < 0.01 µM (active); in the test on SK-MEL-5 it was < 0.01 µM (active); with SR it was 0.147 µM (active); in the test with HL-60, 0.051 µM (active); in the test on XF498, 0.593 µM (active); with DMS-273, 1.74 µM (inactive). For the same compound, the GI50 in the test on K562 was < 0.01 µM (active); in the test with IGROV-1 it was 1.55 µM (inactive); with DLD-1, 2.73 µM (inactive); in the test with Malme-3M it was 1.94 µM (inactive); in the test with OVCAR-5, < 0.01 µM (active); in the test with UACC-257, 0.0671 µM (active). The GI50 in the test with A498 is 6.05 µM (inactive); in the test on SF-268, 2.3 µM (inactive).
With `CCN(CC)CCNC(=O)c1ccccc1Nc1c(Cl)cccc1Cl`, the GI50 with DMS-114 is 11.6 µM (inactive); in the test on SK-MEL-5, 11.8 µM (inactive); in the test with SR, 13 µM (inactive); with HL-60, 7.41 µM (inactive); with XF498 it was 4.19 µM (inactive); with DMS-273, 16.5 µM (inactive). Further, the GI50 with K562 was > 10 µM (inactive); in the test on IGROV-1 it was 19.1 µM (inactive); in the test on DLD-1 it was 11.7 µM (inactive); in the test with OVCAR-5 it was 7.55 µM (inactive); in the test on UACC-257, 15.1 µM (inactive); in the test on SF-268, 18.2 µM (inactive).
Consider `COC(=O)C(=O)CC(=O)CCn1ncc(Cl)c(Cl)c1=O`, for which the GI50 with DMS-114 was 3.15 µM (inactive); in the test with SK-MEL-5, 16.3 µM (inactive); in the test with SR it was 2.84 µM (inactive); with HL-60, 3.94 µM (inactive); in the test with XF498 it was 29 µM (inactive); with DMS-273, 14.9 µM (inactive). For the same compound, the GI50 was 3.56 µM (inactive) in the test on K562; 17.1 µM (inactive) in the test on IGROV-1; 10.3 µM (inactive) in the test with DLD-1; 18.7 µM (inactive) in the test on Malme-3M; 19.2 µM (inactive) in the test with OVCAR-5; 15.8 µM (inactive) with UACC-257. In addition, the GI50 with CAKI-1 was 5.78 µM (inactive); in the test with A498 it was 32.8 µM (inactive); with SF-268, 11.3 µM (inactive).
Turning to `NCc1ccc(O)c(O)c1O`, the GI50 was 18.8 µM (inactive) with DMS-114; 21.7 µM (inactive) in the test with SK-MEL-5; 30.1 µM (inactive) in the test on SR; 30.3 µM (inactive) in the test with HL-60; 26.9 µM (inactive) with XF498; 16.9 µM (inactive) in the test with DMS-273. The GI50 with K562 was 23.6 µM (inactive); in the test on Hs-578T, 10.7 µM (inactive); in the test on MDA-MB-231, 19.7 µM (inactive); in the test on IGROV-1, 38.9 µM (inactive); with DLD-1, 20.3 µM (inactive); in the test on Malme-3M, 71.1 µM (inactive). The GI50 with OVCAR-5 is 17.3 µM (inactive); in the test on UACC-257, 30.8 µM (inactive); in the test on CAKI-1, 29.3 µM (inactive); with A498, 75.3 µM (inactive); in the test on DU-145 it was 62.5 µM (inactive); in the test on SF-268 it was 28.3 µM (inactive). In addition, the GI50 is 18.4 µM (inactive) in the test on BT-549 and 33 µM (inactive) in the test with PC-3.
Consider `CN(C)c1[se]nc2c1c(=O)n(C)c(=O)n2C`, for which the GI50 in the test on DMS-114, with SK-MEL-5, in the test on HL-60, in the test on XF498, with DMS-273 and in the test with K562 was > 100 µM (inactive) each time. In addition, the GI50 in the test on IGROV-1, with DLD-1, with Malme-3M, in the test on OVCAR-5, with UACC-257 and in the test on CAKI-1 was > 100 µM (inactive) throughout. Moreover, the GI50 with A498 and in the test with SF-268 was > 100 µM (inactive) each time.
Consider `C/C(=N\NC(=S)N1CCN(c2ccccn2)CC1)c1ccccn1`, for which the GI50 is 0.0001 µM (active) in the test with DMS-114; 0.0944 µM (active) with SK-MEL-5; 0.0522 µM (active) with SR; 0.000206 µM (active) with XF498; 0.00069 µM (active) with DMS-273; 0.00296 µM (active) in the test with K562. Also, the GI50 in the test with Hs-578T was 0.129 µM (active); in the test with MDA-MB-231, 0.0495 µM (active); in the test with IGROV-1 it was 0.00151 µM (active); with DLD-1, 0.000509 µM (active); in the test with Malme-3M, 0.224 µM (active); with OVCAR-5, 0.0474 µM (active). Moreover, the GI50 in the test with UACC-257 was 0.00135 µM (active); in the test on CAKI-1 it was 0.0467 µM (active); in the test on A498, 0.853 µM (active); in the test with DU-145, 1.08 µM (active); in the test on SF-268 it was 0.193 µM (active); in the test with BT-549, 0.01 µM (active). Further, the GI50 in the test on PC-3 was 0.0304 µM (active).
On to `CCC1(CN(C)C)CC/C(=C\c2ccc(OC)c(OC)c2)C1=O` (stereo not drawn), for which the GI50 in the test with DMS-114 was 99.8 µM (inactive); in the test with SK-MEL-5, > 74.3 µM (inactive); in the test with SR it was < 0.01 µM (active); in the test on XF498, > 100 µM (inactive); in the test on DMS-273, > 100 µM (inactive); in the test on K562, 57.4 µM (inactive). The GI50 in the test on IGROV-1 is > 100 µM (inactive); in the test on DLD-1, > 80.7 µM (inactive); in the test with Malme-3M, > 100 µM (inactive); in the test on OVCAR-5 it was > 69.5 µM (inactive); with UACC-257 it was > 100 µM (inactive); in the test with CAKI-1, 74.5 µM (inactive). The figures for the GI50 in the test on A498 and in the test with SF-268 were 88.7 µM (inactive) and > 100 µM (inactive), respectively.
On to `O=C(NC1CCC[C@H]1OC(=O)c1ccccc1)c1ccccc1` (stereo partly drawn), for which the GI50 is > 10 µM (inactive) in the test on DMS-114; 37.2 µM (inactive) with SK-MEL-5; 47.2 µM (inactive) in the test with SR; 32.2 µM (inactive) with HL-60; 35.3 µM (inactive) with XF498; 95.7 µM (inactive) with DMS-273. Also, the GI50 was 38 µM (inactive) with K562; > 100 µM (inactive) in the test on IGROV-1; 24.4 µM (inactive) with DLD-1; 0.0489 µM (active) in the test on Malme-3M; > 100 µM (inactive) in the test with OVCAR-5; > 100 µM (inactive) in the test with UACC-257. For the same compound, the GI50 is 85.7 µM (inactive) in the test on CAKI-1, 33.1 µM (inactive) in the test with A498 and 86.5 µM (inactive) in the test with SF-268.
For `COc1cc2c(c(OC)c1OC)-c1ccc(SC)c(=O)cc1[C@@H](NC(=O)c1ccc([N+](=O)[O-])cc1)CC2`, the GI50 in the test with DMS-114 is < 0.0025 µM (active); with SK-MEL-5, < 0.0025 µM (active); in the test on SR it was 0.00522 µM (active); with HL-60, < 0.0025 µM (active); in the test on XF498 it was 0.00746 µM (active); in the test with DMS-273, < 0.0025 µM (active). Besides, the GI50 with K562 is < 0.0025 µM (active); in the test on IGROV-1, 0.0126 µM (active); in the test with DLD-1, < 0.0025 µM (active); in the test with Malme-3M, < 0.0025 µM (active); in the test with OVCAR-5, 0.00485 µM (active); in the test on UACC-257 it was < 0.0025 µM (active). Moreover, the GI50 was 0.00632 µM (active) in the test on A498 and 0.0154 µM (active) with SF-268.
